In patent US5397780A, “Pyrroloazepine derivative” (Suntory Limited, priority 1993, dated 1995):

How the values were obtained:
[1] = tested on: α1; assay: Anti-α1 action: norepinephrine-induced tonic contraction of guinea pig thoracic aorta; design: species or system Hartley male guinea pig; conditions: contraction by 10^-5 M norepinephrine = 100%
Protocol: (§1) With respect to certain compounds of the present invention, their anti-α1 action and anti-serotonin (5-HT) action were investigated by the testing methods which will be described below.
The thoracic aorta of each Hartley male guinea pig (body weight: 300-500 g) was excised. A sample cut in a helical form was suspended under 1 g load in a Magnus cylinder filled with the Tyrode solution of 37° C. which had been saturated with a mixed gas consisting of 95% O2 +5% CO2. Using an isometric transducer ("TB-612J"/NIHON KOHDEN) and a pressure preamplifier ("AP-620G"/NIHON KOHDEN), variations in tension were measured. The measurement results were recorded on a thermal pen-writing recorder ("WT-647G"/NIHON KOHDEN).
Taking the tonic contraction induced by 10^-5 M norepinephrine (NE) as 100% the percent contractions upon addition of each test drug at 10^-8 and 10^-7 M were determined as anti-α1 action.

[2] = tested on: serotonin (5-HT); assay: Anti-serotonin (anti-5-HT) action: serotonin-induced contraction of guinea pig superior mesenteric artery; design: species or system Hartley male guinea pig; conditions: contraction by 10^-5 M serotonin = 100%
Protocol: as §1
A sample cut in a helical form was suspended under 0.3 g load in a Magnus cylinder filled with the Tyrode solution of 37° C. which had been saturated with a mixed gas consisting of 95% O2 +5% CO2. Using an isometric transducer ("UL-10"/SHINKOH K.K.) and a pressure preamplifier ("DSA-605A"/SHINKOH K.K.), variations in tension were measured. The measurement results were recorded on a pen-writing recorder ("VP-6537A"/NATIONAL K.K.). Taking the contraction induced by 10^-5 M serotonin (5-HT) as 100% the percent contractions in the presence of each test drug at 10^-7 and 10^-6 M were determined as anti-5-HT action.

Structure (SMILES): O=C1CCN(Cc2ccccc2)C(=O)c2c1ccn2CCCCCN1CCN(c2ccccc2)CC1 [Compound No. 20, 7-Benzyl-1-[5-(4-phenylpiperazin-1-yl)pentyl]6,7-dihydropyrrolo[2,3-c]azepine-4,8(1H,5H)-dione]
- Anti α1 action (% of Control), percent contraction ([1]; test drug 10^-7 M, 0.1 µM): 19.9 % of Control
- Anti α1 action (% of Control), percent contraction ([1]; test drug 10^-8 M, 0.01 µM): 49.2 % of Control
- Anti 5-HT action (% of Control), percent contraction ([2]; test drug 10^-6 M, 1 µM): 45.7 % of Control
- Anti 5-HT action (% of Control), percent contraction ([2]; test drug 10^-7 M, 0.1 µM): 54.5 % of Control

Structure (SMILES): CN1CCC(O)c2ccn(CCCCN3CCN(c4ccccc4)CC3)c2C1=O (stereo not drawn) [Compound No. 24, 4-hydroxy-7-methyl-1-[4-(4-phenylpiperazin-1-yl)butyl]-4,5,6,7-tetrahydropyrrolo[2,3-c]azepin-8(1H)-one]
- Anti α1 action (% of Control), percent contraction ([1]; test drug 10^-7 M, 0.1 µM): 41.0 % of Control
- Anti α1 action (% of Control), percent contraction ([1]; test drug 10^-8 M, 0.01 µM): 90.3 % of Control
- Anti 5-HT action (% of Control), percent contraction ([2]; test drug 10^-6 M, 1 µM): 36.0 % of Control
- Anti 5-HT action (% of Control), percent contraction ([2]; test drug 10^-7 M, 0.1 µM): 78.3 % of Control

Structure (SMILES): CN1CCC(=NO)c2ccn(CCCCN3CCN(c4ccccc4)CC3)c2C1=O [Compound No. 27, 4-Hydroxyimino-7-methyl-1-[4-(4-phenylpiperazin-1-yl)butyl]-4,5,6,7-tetrahydropyrrolo[2,3-c]azepin-8(1H)-one]
- Anti α1 action (% of Control), percent contraction ([1]; test drug 10^-7 M, 0.1 µM): 18.4 % of Control
- Anti α1 action (% of Control), percent contraction ([1]; test drug 10^-8 M, 0.01 µM): 74.2 % of Control
- Anti 5-HT action (% of Control), percent contraction ([2]; test drug 10^-6 M, 1 µM): 25.7 % of Control
- Anti 5-HT action (% of Control), percent contraction ([2]; test drug 10^-7 M, 0.1 µM): 69.8 % of Control

Structure (SMILES): CN1CCC(=NO)c2ccn(CCCCN3CCN(c4ccc(F)cc4)CC3)c2C1=O [Compound No. 29, 4-Hydroxyimino-7-methyl-1-[4-[4-(4-fluorophenyl)piperazin-1-yl]butyl]-4,5,6,7-tetrahydropyrrolo[2,3-c]azepin-8(1H)-one]
- Anti α1 action (% of Control), percent contraction ([1]; test drug 10^-7 M, 0.1 µM): 39.5 % of Control
- Anti α1 action (% of Control), percent contraction ([1]; test drug 10^-8 M, 0.01 µM): 94.2 % of Control
- Anti 5-HT action (% of Control), percent contraction ([2]; test drug 10^-6 M, 1 µM): 12.0 % of Control
- Anti 5-HT action (% of Control), percent contraction ([2]; test drug 10^-7 M, 0.1 µM): 66.2 % of Control

Structure (SMILES): CN1CCC(=NO)c2ccn(CCCCN3CCN(c4cccc(Cl)c4)CC3)c2C1=O [Compound No. 31, 1-[4-[4-(3-Chlorophenyl)piperazin-1-yl]butyl]-4-hydroxyimino-7-methyl-4,5,6,7-tetrahydropyrrolo[2,3-c]azepin-8(1H)-one]
- Anti α1 action (% of Control), percent contraction ([1]; test drug 10^-7 M, 0.1 µM): 19.4 % of Control
- Anti α1 action (% of Control), percent contraction ([1]; test drug 10^-8 M, 0.01 µM): 93.9 % of Control
- Anti 5-HT action (% of Control), percent contraction ([2]; test drug 10^-6 M, 1 µM): 69.0 % of Control
- Anti 5-HT action (% of Control), percent contraction ([2]; test drug 10^-7 M, 0.1 µM): 86.2 % of Control

Structure (SMILES): COc1ccccc1N1CCN(CCCCCn2ccc3c2C(=O)N(Cc2ccccc2)CCC3=O)CC1 [Compound No. 36, 7-Benzyl-1-[5-[4-(2-methoxyphenyl)piperazin-1-yl]pentyl]-6,7-dihydropyrrolo[2,3-c]azepine-4,8(1H,5H)-dione]
- Anti α1 action (% of Control), percent contraction ([1]; test drug 10^-7 M, 0.1 µM): 21.4 % of Control
- Anti α1 action (% of Control), percent contraction ([1]; test drug 10^-8 M, 0.01 µM): 43.6 % of Control
- Anti 5-HT action (% of Control), percent contraction ([2]; test drug 10^-6 M, 1 µM): 61.8 % of Control
- Anti 5-HT action (% of Control), percent contraction ([2]; test drug 10^-7 M, 0.1 µM): 84.0 % of Control
